Calls of active or inactive are those of the source. No cut-off for these calls is given here.

Data set [1] deals with NCI-H460. Description: Cell cycle arrest in human NCI-H460 cells assessed as accumulation of cells in G1 phase at 20 uM measured after 72 hrs by propidium iodide/RNase staining based flow cytometry analysis (Rvb= 62.9%). In kind it is functional.
Data set [2] relates to NCI-H460. Description: Induction of apoptosis in human NCI-H460 cells assessed as early apoptotic cells at 10 uM measured after 72 hrs by Annexin V-FITC and propidium iodide staining based flow cytometry analysis (Rvb= 6.61%). In kind it is functional.
The test system of data set [3] is NCI-H460. Description: Cell cycle arrest in human NCI-H460 cells assessed as accumulation of cells in G1 phase at 5 uM measured after 72 hrs by propidium iodide/RNase staining based flow cytometry analysis (Rvb= 62.9%). The format is functional.
Data set [4] concerns NCI-H460. As to the kind of experiment: Effect on total ERK expression in human NCI-H460 cells at 1 to 20 uM measured after 72 hrs by western blot analysis. In kind it is functional, cell-based. The settings on record: dose 1-20 µM.
For data set [5], the system named is NCI-H460. As to the kind of experiment: Inhibition of colony formation in human NCI-H460 cells assessed as reduction in colony formation incubated for 15 days and subsequent media replacement with compound for every 72 hrs by crystal violet staining based assay. The format is functional, cell-based. The note with it: dose 5-20 µM, time 15.0 day.
The subject of data set [6] is NCI-H460. Description: Induction of apoptosis in human NCI-H460 cells assessed as early apoptotic cells at 20 uM measured after 72 hrs by Annexin V-FITC and propidium iodide staining based flow cytometry analysis (Rvb= 6.61%). The format is functional. A general note: Flow cytometry measures light scatter and fluorescence of single cells or particles in a stream.
In data set [7] the test system is NCI-H460. Description: Cell cycle arrest in human NCI-H460 cells assessed as accumulation of cells in S phase at 5 uM measured after 72 hrs by propidium iodide/RNase staining based flow cytometry analysis (Rvb= 26.87%). The format is functional.
Data set [8] relates to NCI-H460. Description: Induction of apoptosis in human NCI-H460 cells assessed as decrease in pro-PARP expression level at 1 to 20 uM measured after 72 hrs by western blot analysis. In kind it is functional, cell-based. The note with it: dose 1-20 µM. (In western blotting, separated proteins are transferred to a membrane and probed.)
Data set [9] deals with NCI-H460. As to the kind of experiment: Inhibition of cell proliferation in human NCI-H460 cells assessed as reduction in PCNA expression measured after 72 hrs by western blot analysis. The format is functional, cell-based. The settings on record: dose 1-20 µM.
Data set [10] relates to NCI-H460. As to the kind of experiment: Antimigratory activity against human NCI-H460 cells assessed as reduction in vimentin expression level at 1 to 20 uM measured after 72 hrs by western blot analysis. In kind it is functional, cell-based. The note with it: dose 1-20 µM.
Data set [11] relates to NCI-H460. Description: Induction of apoptosis in human NCI-H460 cells assessed as decrease in pro-caspase3 expression level at 1 to 20 uM measured after 72 hrs by western blot analysis. In kind it is functional, cell-based. The settings on record: dose 1-20 µM.
Data set [12] concerns PNT2. Description: Cytotoxicity against human PNT2 cells assessed as reduction in cell viability at 4 times IC50 measured after 72 hrs by crystal violet staining based assay. The settings on record: pnt2, 72 h.
The subject of data set [13] is NCI-H460. As to the kind of experiment: Antimigratory activity against human NCI-H460 cells assessed as reduction in VEGF expression level measured after 72 hrs by western blot analysis. The format is functional, cell-based. The note with it: dose 1-20 µM.
Data set [14] concerns the target MAP kinase p38 (Homo sapiens) (UniProt O15264+Q15759+Q16539+P53778). As to the kind of experiment: Inhibition of p38 MAPK phosphorylation in human NCI-H460 cells at 20 uM measured after 72 hrs by western blot analysis. The format is cell-based.
Data set [15] concerns NCI-H460. Description: Cell cycle arrest in human NCI-H460 cells assessed as accumulation of cells in G1 phase at 10 uM measured after 72 hrs by propidium iodide/RNase staining based flow cytometry analysis (Rvb= 62.9%). The format is functional.

Regarding `COc1cc(CNC(=O)CCCC/C=C/C(C)C)ccc1OCc1nnc(Nc2ccc([N+](=O)[O-])cc2)o1`, the Activity was 56.45% in data set [1]; 8.29% in data set [2]; 61.8% in data set [3]; 21.15% in data set [6]; 28.16% in data set [7]; “Non-Toxic” in data set [12]. Also, the Activity entry in data set [13] is “Dose-dependent effect”; in data set [15], 59.13%. For the same compound, the result in [4] and in data set [10] was inactive. The inhibition result in [5] and in [9] was “Dose-dependent effect” each time. Also, the result in data set [8] and in data set [11] was Active. Further, the inhibition result in data set [14] was “Active”.

(Values after ChEMBL document CHEMBL5055675, “Apoptosis Inducing 1,3,4-Oxadiazole Conjugates of Capsaicin: Their In Vitro Antiproliferative and In Silico Studies” (ACS Med Chem Lett, 2021).)
